From ChEMBL document CHEMBL5331094, “Identification of 2,4,5-trisubstituted-2,4-dihydro-3H-1,2,4-triazol-3-one-based small molecules as selective BRD9 binders” (Eur J Med Chem, 2023)

Tests used:
[1] = biological target: Bromodomain-containing protein 4 (Homo sapiens) (UniProt O60885); experiment: Binding affinity of recombinant His-tagged BRD4-BD1 (unknown origin) to histone H4Ac (1 to 21 residues) K5/8/12/Ac-Biotin-OH assessed as residual binding at 10 uM incubated for 30 mins by alphascreen analysis relative to control
MCF7 = experiment: Cytotoxicity against human MCF7 cells assessed as cell viability measured after 24 hrs by MTT assay; format: functional, cell-based; conditions: MCF7, 24 h
[2] = biological target: Bromodomain-containing protein 2 (Homo sapiens) (UniProt P25440); experiment: Binding affinity of recombinant His-tagged BRD2-BD2 (unknown origin) to histone H4Ac (1 to 21 residues) K5/8/12/Ac-Biotin-OH assessed as residual binding at 10 uM incubated for 30 mins by alphascreen analysis relative to control
[3] = biological target: Transcription initiation factor TFIID subunit 1 (Homo sapiens) (UniProt P21675); experiment: Binding affinity of recombinant His-tagged TAF1 (unknown origin) to histone H4Ac (1 to 21 residues) K5/8/12/Ac-Biotin-OH assessed as residual binding at 10 uM incubated for 30 mins by alphascreen analysis relative to control
[4] = biological target: Bromodomain-containing protein 3 (Homo sapiens) (UniProt Q15059); experiment: Binding affinity of recombinant His-tagged BRD3-BD1 (unknown origin) to histone H4Ac (1 to 21 residues) K5/8/12/Ac-Biotin-OH assessed as residual binding at 10 uM incubated for 30 mins by alphascreen analysis relative to control
[5] = biological target: Bromodomain and PHD finger-containing protein 3 (Homo sapiens) (UniProt Q9ULD4); experiment: Binding affinity of recombinant His-tagged BRPF-3 (unknown origin) to histone H4Ac (1 to 21 residues) K5/8/12/Ac-Biotin-OH assessed as residual binding at 10 uM incubated for 30 mins by alphascreen analysis relative to control
[6] = biological target: ATPase family AAA domain-containing protein 2 (Homo sapiens) (UniProt Q6PL18); experiment: Binding affinity of recombinant His-tagged ATAD2 (unknown origin) to histone H4Ac (1 to 21 residues) K5/8/12/Ac-Biotin-OH assessed as residual binding at 10 uM incubated for 30 mins by alphascreen analysis relative to control
[7] = biological target: Nucleosome-remodeling factor subunit BPTF (Homo sapiens) (UniProt Q12830); experiment: Binding affinity of recombinant His-tagged BPTF (unknown origin) to histone H4Ac (1 to 21 residues) K5/8/12/Ac-Biotin-OH assessed as residual binding at 10 uM incubated for 30 mins by alphascreen analysis relative to control
[8] = biological target: Bromodomain-containing protein 2 (Homo sapiens) (UniProt P25440); experiment: Binding affinity of recombinant His-tagged BRD2-BD1 (unknown origin) to histone H4Ac (1 to 21 residues) K5/8/12/Ac-Biotin-OH assessed as residual binding at 10 uM incubated for 30 mins by alphascreen analysis relative to control
[9] = biological target: Bromodomain-containing protein 3 (Homo sapiens) (UniProt Q15059); experiment: Binding affinity of recombinant His-tagged BRD3-BD2 (unknown origin) to histone H4Ac (1 to 21 residues) K5/8/12/Ac-Biotin-OH assessed as residual binding at 10 uM incubated for 30 mins by alphascreen analysis relative to control
[10] = biological target: Bromodomain testis-specific protein (Homo sapiens) (UniProt Q58F21); experiment: Binding affinity of recombinant His-tagged BRDT-BD1 (unknown origin) to histone H4Ac (1 to 21 residues) K5/8/12/Ac-Biotin-OH assessed as residual binding at 10 uM incubated for 30 mins by alphascreen analysis relative to control
[11] = biological target: CREB-binding protein (Homo sapiens) (UniProt Q92793); experiment: Binding affinity of recombinant His-tagged CREBBP (unknown origin) to histone H4Ac (1 to 21 residues) K5/8/12/Ac-Biotin-OH assessed as residual binding at 10 uM incubated for 30 mins by alphascreen analysis relative to control
A-375 = experiment: Cytotoxicity against human A-375 cells assessed as cell viability measured after 24 hrs by MTT assay; format: functional, cell-based; conditions: A-375, 24 h
[12] = biological target: T1, Bromodomain-containing protein 9 (Homo sapiens, UniProt Q9H8M2); experiment: Inhibition of BRD9 (unknown origin) by alpha screen analysis
T1 sequence (Q9H8M2 whole entry): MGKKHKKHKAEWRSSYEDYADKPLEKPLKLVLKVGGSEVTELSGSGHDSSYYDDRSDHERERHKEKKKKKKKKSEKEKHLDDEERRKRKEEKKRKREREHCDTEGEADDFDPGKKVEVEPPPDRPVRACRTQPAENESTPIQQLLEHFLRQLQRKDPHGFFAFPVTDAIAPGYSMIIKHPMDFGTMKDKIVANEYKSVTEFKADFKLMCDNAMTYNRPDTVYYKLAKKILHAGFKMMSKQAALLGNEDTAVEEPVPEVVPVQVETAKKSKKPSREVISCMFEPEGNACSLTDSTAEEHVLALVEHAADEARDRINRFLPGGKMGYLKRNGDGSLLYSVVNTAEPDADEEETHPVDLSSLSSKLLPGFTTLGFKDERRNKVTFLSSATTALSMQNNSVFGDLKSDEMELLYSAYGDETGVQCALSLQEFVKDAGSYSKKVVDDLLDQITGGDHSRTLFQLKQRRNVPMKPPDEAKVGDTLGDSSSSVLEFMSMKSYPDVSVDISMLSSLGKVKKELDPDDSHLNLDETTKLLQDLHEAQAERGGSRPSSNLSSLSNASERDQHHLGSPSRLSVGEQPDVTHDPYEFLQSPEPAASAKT

[13] = biological target: Bromodomain-containing protein 7 (Homo sapiens, UniProt Q9NPI1); experiment: Inhibition of recombinant His-tagged […] (unknown origin) to histone H3 (1 to 30 residues) K4/18/23/27Ac incubated for 30 mins by alphascreen analysis
[14] = biological target: Chromatin remodeling regulator CECR2 (Homo sapiens) (UniProt Q9BXF3); experiment: Binding affinity of recombinant His-tagged CECR2 (unknown origin) to histone H4Ac (1 to 21 residues) K5/8/12/Ac-Biotin-OH assessed as residual binding at 10 uM incubated for 30 mins by alphascreen analysis relative to control
[15] = biological target: Bromodomain adjacent to zinc finger domain protein 2B (Homo sapiens) (UniProt Q9UIF8); experiment: Binding affinity of recombinant His-tagged BAZ2B (unknown origin) to histone H3 (1 to 21 residues) K9/14Ac-Biotin-OH assessed as residual binding at 10 uM incubated for 30 mins by alphascreen analysis relative to control
Caco-2 = experiment: Cytotoxicity against human Caco-2 cells assessed as cell viability measured after 24 hrs by MTT assay; format: functional, cell-based; conditions: Caco-2, 24 h
HaCaT = experiment: Cytotoxicity against human HaCaT cells assessed as cell viability measured after 24 hrs by MTT assay; format: functional, cell-based
[16] = biological target: Bromodomain-containing protein 1 (Homo sapiens) (UniProt O95696); experiment: Binding affinity of recombinant His-tagged BRD1 (unknown origin) to histone H4Ac (1 to 21 residues) K5/8/12/Ac-Biotin-OH assessed as residual binding at 10 uM incubated for 30 mins by alphascreen analysis relative to control
[17] = biological target: T2, Bromodomain-containing protein 9 (Homo sapiens) (UniProt Q9H8M2); experiment: Binding affinity of GST-tagged BRD9 domain (unknown origin) to histone H4Ac (1 to 21 residues) assessed as residual binding at 10 uM by alphascreen analysis relative to control
T2 sequence (whole entry): T1 sequence (Q9H8M2 whole entry)

[18] = biological target: Bromodomain-containing protein 4 (Homo sapiens) (UniProt O60885); experiment: Binding affinity of recombinant His-tagged BRD4-BD2 (unknown origin) to histone H4Ac (1 to 21 residues) K5/8/12/Ac-Biotin-OH assessed as residual binding at 10 uM incubated for 30 mins by alphascreen analysis relative to control
[19] = biological target: Bromodomain-containing protein 7 (Homo sapiens) (UniProt Q9NPI1); experiment: Binding affinity of recombinant His-tagged […] (unknown origin) to histone H3 (1 to 30 residues) K4/18/23/27Ac assessed as residual binding at 10 uM incubated for 30 mins by alphascreen analysis relative to control
[20] = Cytotoxicity against human erythrocytes assessed as cell viability measured after 24 hrs by MTT assay; format: toxicity, cell-based, Erythrocyte
Jurkat = experiment: Cytotoxicity against human Jurkat cells assessed as cell viability measured after 24 hrs by MTT assay; format: functional, cell-based
[21] = biological target: SWI/SNF-related matrix-associated actin-dependent regulator of chromatin subfamily A member 4 (Homo sapiens) (UniProt P51532); experiment: Binding affinity of recombinant His-tagged SMARCA4 (unknown origin) to histone H3 (1 to 30 residues) K4/18/23/27Ac assessed as residual binding at 10 uM incubated for 30 mins by alphascreen analysis relative to control

Chain of Bromodomain-containing protein 3 (Homo sapiens) (Q15059 2-726 limits assumed): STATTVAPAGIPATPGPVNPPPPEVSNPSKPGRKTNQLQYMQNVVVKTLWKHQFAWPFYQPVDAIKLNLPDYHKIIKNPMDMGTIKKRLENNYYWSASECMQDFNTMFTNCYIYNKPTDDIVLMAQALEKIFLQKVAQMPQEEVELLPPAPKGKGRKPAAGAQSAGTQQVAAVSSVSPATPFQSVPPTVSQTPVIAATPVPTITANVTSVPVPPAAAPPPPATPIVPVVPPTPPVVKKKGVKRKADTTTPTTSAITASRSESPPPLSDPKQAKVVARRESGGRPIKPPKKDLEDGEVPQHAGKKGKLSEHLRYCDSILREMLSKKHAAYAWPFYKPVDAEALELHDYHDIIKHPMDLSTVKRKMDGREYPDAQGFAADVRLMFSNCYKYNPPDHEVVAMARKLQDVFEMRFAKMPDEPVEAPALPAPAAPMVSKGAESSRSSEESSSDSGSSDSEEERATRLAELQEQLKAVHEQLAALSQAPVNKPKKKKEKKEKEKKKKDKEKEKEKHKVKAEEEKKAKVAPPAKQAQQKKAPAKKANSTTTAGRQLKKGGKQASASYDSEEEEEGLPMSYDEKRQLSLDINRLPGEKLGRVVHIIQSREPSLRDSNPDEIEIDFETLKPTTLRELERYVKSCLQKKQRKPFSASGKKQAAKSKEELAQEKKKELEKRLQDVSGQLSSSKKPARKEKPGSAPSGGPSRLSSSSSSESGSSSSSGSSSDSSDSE
Chain of Bromodomain-containing protein 2 (Homo sapiens) (P25440 whole entry, looked up, the tested form may be a part): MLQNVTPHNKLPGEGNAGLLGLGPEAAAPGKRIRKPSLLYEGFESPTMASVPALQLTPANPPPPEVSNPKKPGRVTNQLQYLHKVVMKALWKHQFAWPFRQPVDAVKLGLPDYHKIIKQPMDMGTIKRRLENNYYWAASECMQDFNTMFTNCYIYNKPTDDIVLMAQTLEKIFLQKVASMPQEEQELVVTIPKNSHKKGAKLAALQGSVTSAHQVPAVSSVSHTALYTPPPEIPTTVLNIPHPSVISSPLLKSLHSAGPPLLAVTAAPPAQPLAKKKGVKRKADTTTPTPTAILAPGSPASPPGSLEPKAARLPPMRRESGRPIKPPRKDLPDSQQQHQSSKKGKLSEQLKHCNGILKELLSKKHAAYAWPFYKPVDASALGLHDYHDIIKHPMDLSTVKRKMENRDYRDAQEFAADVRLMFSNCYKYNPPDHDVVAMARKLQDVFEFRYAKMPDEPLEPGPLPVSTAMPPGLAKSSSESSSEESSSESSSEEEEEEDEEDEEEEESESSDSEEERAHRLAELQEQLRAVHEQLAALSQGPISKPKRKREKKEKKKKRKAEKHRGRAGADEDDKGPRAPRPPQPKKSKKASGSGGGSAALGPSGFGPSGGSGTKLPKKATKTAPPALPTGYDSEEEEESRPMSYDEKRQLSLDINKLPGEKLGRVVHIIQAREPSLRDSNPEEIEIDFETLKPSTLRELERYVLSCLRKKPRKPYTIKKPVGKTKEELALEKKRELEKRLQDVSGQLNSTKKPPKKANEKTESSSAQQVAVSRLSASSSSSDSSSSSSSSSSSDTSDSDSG
Chain of Bromodomain adjacent to zinc finger domain protein 2B (Homo sapiens) (Q9UIF8 whole entry, the tested form may be a part): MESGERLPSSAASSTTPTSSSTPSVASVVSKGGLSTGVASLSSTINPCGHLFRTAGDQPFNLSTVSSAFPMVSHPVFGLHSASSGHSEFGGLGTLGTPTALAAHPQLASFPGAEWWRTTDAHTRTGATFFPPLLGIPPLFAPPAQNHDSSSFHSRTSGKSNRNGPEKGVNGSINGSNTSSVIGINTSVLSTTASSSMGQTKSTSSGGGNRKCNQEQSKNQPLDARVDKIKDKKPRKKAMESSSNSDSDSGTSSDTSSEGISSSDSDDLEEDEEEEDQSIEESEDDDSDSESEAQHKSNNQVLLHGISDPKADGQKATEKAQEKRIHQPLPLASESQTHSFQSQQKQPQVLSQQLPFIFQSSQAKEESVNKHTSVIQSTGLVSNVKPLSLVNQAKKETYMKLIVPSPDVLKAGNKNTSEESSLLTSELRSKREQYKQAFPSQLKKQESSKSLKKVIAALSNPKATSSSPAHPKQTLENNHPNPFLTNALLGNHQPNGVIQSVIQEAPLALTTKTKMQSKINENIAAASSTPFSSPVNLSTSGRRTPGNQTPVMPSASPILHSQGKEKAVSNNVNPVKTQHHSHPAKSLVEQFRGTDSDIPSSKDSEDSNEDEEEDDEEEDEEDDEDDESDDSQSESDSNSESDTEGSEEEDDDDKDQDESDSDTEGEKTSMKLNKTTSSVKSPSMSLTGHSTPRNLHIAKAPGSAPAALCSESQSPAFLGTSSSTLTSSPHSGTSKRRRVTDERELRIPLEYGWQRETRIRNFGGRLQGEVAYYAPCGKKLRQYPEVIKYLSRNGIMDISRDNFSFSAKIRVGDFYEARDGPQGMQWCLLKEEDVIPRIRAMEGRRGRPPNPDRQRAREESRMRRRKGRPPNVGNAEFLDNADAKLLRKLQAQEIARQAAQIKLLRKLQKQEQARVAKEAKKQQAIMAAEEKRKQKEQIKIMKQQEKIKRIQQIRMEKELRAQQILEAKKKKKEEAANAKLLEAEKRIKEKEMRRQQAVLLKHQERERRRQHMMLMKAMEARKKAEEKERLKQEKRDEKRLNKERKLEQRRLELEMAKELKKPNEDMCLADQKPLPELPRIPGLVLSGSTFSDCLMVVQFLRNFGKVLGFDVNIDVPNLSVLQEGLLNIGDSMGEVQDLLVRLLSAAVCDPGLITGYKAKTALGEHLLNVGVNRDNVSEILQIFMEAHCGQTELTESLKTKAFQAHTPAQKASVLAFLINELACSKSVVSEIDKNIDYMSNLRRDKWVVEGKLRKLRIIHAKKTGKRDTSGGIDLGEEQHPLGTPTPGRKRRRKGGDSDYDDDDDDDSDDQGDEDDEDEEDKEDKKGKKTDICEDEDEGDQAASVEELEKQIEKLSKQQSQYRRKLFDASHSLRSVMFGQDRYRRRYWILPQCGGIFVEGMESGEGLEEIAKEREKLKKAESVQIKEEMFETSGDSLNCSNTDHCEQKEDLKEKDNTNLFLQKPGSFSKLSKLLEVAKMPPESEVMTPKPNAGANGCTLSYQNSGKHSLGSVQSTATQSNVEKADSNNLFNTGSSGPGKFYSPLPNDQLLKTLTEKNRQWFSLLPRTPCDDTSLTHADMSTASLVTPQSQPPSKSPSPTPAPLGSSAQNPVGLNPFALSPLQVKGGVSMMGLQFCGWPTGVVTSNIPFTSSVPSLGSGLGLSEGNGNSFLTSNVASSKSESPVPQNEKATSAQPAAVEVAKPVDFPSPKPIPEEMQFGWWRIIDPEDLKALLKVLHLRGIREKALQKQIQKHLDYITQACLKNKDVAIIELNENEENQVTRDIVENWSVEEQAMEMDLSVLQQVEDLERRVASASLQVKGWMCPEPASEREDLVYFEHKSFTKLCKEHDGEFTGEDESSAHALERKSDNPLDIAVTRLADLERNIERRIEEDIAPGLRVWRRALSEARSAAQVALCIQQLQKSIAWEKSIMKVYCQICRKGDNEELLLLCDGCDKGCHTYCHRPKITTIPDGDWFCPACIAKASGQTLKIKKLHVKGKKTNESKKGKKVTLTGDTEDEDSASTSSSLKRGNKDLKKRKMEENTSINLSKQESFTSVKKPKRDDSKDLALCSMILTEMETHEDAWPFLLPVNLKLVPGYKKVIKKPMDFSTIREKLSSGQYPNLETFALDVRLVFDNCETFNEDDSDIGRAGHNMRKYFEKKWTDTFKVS
Chain of Bromodomain-containing protein 1 (Homo sapiens) (O95696 whole entry, the tested form may be a part): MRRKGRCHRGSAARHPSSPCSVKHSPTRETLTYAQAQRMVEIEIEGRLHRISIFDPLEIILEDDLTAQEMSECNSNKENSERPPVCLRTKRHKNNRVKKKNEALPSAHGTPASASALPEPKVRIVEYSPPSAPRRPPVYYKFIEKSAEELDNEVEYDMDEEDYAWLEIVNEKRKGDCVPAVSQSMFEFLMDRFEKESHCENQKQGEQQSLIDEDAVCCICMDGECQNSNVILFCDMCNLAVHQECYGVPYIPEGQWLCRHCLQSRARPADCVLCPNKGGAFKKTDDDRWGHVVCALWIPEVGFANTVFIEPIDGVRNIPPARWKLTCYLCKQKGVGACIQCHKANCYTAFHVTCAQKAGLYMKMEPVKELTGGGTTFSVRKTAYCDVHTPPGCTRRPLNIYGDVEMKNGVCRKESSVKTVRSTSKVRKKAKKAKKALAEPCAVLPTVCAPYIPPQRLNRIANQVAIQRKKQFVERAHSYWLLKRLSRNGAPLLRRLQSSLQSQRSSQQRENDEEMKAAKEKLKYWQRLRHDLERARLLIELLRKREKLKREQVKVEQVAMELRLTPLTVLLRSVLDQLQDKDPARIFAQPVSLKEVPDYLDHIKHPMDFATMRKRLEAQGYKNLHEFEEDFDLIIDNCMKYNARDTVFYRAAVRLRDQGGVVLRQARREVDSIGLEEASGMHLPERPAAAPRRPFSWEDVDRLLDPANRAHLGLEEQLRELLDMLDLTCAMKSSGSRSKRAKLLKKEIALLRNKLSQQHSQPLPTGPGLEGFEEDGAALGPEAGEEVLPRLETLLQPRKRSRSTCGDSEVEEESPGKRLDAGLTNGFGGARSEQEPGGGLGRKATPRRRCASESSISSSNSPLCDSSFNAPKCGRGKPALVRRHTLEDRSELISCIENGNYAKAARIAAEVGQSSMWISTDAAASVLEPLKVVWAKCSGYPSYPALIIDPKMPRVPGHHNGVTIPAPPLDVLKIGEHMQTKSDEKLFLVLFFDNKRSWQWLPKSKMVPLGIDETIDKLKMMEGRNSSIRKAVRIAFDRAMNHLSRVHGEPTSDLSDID

Structure (SMILES): CCc1nn(C)c(=O)n1-c1ccc2c(c1)OCO2
- Activity [1]: > 100%
- IC50 (MCF7): 500 µM
- Activity [2]: > 100%
- Activity [3]: 77.7%
- Activity [4]: 96.5%
- Activity [5]: 94.2%
- Activity [6]: > 100%
- Activity [7]: 95.5%
- Activity [8]: 98.9%
- Activity [9]: > 100%
- Activity [10]: > 100%
- Activity [11]: 97.7%
- IC50 (A-375): 270 µM
- IC50 [12]: 0.14 µM
- IC50 [13]: 71.4 µM
- Activity [14]: 92.6%
- Activity [15]: > 100%
- IC50 (Caco-2): 330 µM
- IC50 (HaCaT): > 500 µM
- Activity [16]: 97.3%
- Activity [17]: 21.1%
- Activity [18]: 88.6%
- Activity [19]: 75.8%
- IC50 at 24 h [20]: > 500 µM
- IC50 (Jurkat): 145 µM
- Activity [21]: 96.5%
